The target in one test is AChE (Electrophorus electricus, UniProt O42275). The test is described as follows: biochemical. The conditions noted are these: for Ki: from Lineweaver-Burk graphs, mean ± SD, triplicate; for Selectivity index (AChE/BChE): ratio AChE/BChE. The class given is biochemical. As for the experimental part: (§1) These analogs were dissolved in DMSO at an initial concentration of 1 mg/mL. Around 1% of DMSO was present in the final reaction mixture. Acetylthiocholine iodide (AChI)/butyrylcholine iodide (BChI) were used as substrates for enzymatic reactions. […] The mixture was incubated at 20 °C for 20 min. Then, 50 µL of 5,5’-dithio-bis 2-nitro-benzoic acid (DTNB, 0.5 mM) and AChI/BChI were added and enzymatic reactions were initiated.
(§2) Lineweaver-Burk graphs were used for the calculation of Ki and the other parameters as described in prior studies. The Ki values were taken out from this graph. All analyses were conducted independently in triplicate, and result data are expressed as mean values ± SD [59].

The next test concerns the target BChE (Equus caballus, UniProt P81908). The test is described as follows: biochemical. The class given is biochemical. The conditions noted are these: for Ki: from Lineweaver-Burk graphs, mean ± SD, triplicate. On the procedure: as §1, §2

In general, IC50 refers to the concentration needed to halve the response being measured. A word on the Ki: it is the dissociation constant of the complex between target and ligand, obtained from inhibition or displacement. Read a high Ki as a looser hold on the target.

SMILES strings stand for the structures.

Chain of BChE (P81908 whole entry): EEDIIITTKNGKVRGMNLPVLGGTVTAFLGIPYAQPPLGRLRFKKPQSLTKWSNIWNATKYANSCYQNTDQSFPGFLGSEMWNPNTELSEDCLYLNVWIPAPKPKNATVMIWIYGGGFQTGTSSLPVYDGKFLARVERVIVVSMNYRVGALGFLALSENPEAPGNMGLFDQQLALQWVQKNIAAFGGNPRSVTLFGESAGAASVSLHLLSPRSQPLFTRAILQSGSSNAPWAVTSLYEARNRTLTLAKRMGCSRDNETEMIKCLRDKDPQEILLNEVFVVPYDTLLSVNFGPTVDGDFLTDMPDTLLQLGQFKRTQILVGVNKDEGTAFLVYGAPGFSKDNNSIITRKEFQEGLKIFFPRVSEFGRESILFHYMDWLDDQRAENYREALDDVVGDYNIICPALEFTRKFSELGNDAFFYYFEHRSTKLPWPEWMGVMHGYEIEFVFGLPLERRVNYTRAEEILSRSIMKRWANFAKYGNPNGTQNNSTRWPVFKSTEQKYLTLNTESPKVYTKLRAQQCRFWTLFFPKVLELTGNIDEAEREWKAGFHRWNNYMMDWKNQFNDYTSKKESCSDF
Chain of AChE (O42275 24-633): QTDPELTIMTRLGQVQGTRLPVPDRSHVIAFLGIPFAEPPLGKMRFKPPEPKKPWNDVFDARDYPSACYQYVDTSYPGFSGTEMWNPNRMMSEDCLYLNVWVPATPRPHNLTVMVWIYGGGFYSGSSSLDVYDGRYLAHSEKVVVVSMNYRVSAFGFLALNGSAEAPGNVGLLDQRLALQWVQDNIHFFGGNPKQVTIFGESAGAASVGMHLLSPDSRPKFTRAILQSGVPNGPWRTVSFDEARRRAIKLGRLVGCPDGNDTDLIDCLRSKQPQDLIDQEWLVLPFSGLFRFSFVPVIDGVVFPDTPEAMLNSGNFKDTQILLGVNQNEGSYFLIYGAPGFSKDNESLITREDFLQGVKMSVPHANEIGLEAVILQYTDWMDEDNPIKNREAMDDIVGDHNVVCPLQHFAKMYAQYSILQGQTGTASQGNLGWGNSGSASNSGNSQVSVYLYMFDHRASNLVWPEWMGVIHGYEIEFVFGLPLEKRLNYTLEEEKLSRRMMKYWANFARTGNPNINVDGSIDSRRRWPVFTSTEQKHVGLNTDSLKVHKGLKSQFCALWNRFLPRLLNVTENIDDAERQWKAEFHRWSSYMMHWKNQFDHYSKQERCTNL

As to `O=C(c1ccc2nc(-c3ccco3)oc2c1)N1CCOCC1` [Compound 42], on AChE, the IC50 stood at 21 nM; the affinity, expressed as Ki, was 14.6 ± 3.01 nM; the “Selectivity index (AChE/BChE)” value was 0.30. At BChE, this compound displayed a 50% inhibitory concentration (IC50) of 58.7 nM and a Ki of 48.6 ± 4.55 nM.

As for `O=C(c1ccc2nc(-c3cccs3)oc2c1)N1CCCCC1` [Compound 47, Piperidin-1-yl(2-(thiophen-2-yl)benzo[d]oxazol-6-yl)methanone], at AChE, the IC50 is 24 nM, the Ki was determined as 22.3 ± 4.11 nM and the “Selectivity index (AChE/BChE)” value is recorded as 0.48. In addition, at BChE, the IC50 turned out to be 65.2 nM and the Ki stood at 46.6 ± 2.1 nM.

As to `O=C(c1ccc2nc(-c3cccc4ccccc34)oc2c1)N1CCOCC1` [Compound 24, Morpholino(2-(naphthalen-1-yl)benzo[d]oxazol-6-yl)methanone], at AChE, inhibition was half-maximal at 50.9 nM (IC50), the Ki was 45.7 ± 1.65 nM and the “Selectivity index (AChE/BChE)” value is given as 0.90. At BChE, half-maximal inhibition (IC50) required 83.8 nM and affinity was put at a Ki of 50.7 ± 14 nM.

In the case of `O=C(c1ccc2nc(-c3ccc(-c4ccccc4)cc3)oc2c1)N1CCCC1` [Compound 16, (2-([1,1’-Biphenyl]-4-yl)benzo[d]oxazol-6-yl)(pyrrolidin-1-yl)methanone], on AChE, the midpoint of inhibition, the IC50, lay at 26.3 nM; the affinity corresponds to a Ki of 26.7 ± 5.13 nM; the “Selectivity index (AChE/BChE)” value was determined as 0.32. At BChE, the IC50 was determined as 86.2 nM and the affinity, expressed as Ki, was 84 ± 12.4 nM.

On to `O=C(c1ccc2nc(-c3ccc[nH]3)oc2c1)N1CCCCC1` [Compound 35, (2-(1 H-pyrrol-2-yl)benzo[d]oxazol-6-yl)(piperidin-1-yl)methanone], for which, at AChE, the IC50 was 19 nM; the affinity, expressed as Ki, was 12.3 ± 1.28 nM; the “Selectivity index (AChE/BChE)” value is 0.27. For the same compound, on BChE, it took 49.2 nM to reach half-maximal inhibition (IC50) and the Ki stood at 44.5 ± 7.43 nM.

As for `O=C(c1ccc2nc(-c3ccccc3)oc2c1)N1CCCC1` [Compound 10], at AChE, half-maximal inhibition (IC50) required 35.7 nM, the Ki came to 46.5 ± 6.59 nM and the “Selectivity index (AChE/BChE)” value came to 1.27. Moreover, on BChE, the IC50 came to 51.4 nM and the inhibitory constant (Ki) was 36.6 ± 11 nM.

Consider `O=C(c1ccc2nc(-c3ccc(-c4ccccc4)cc3)oc2c1)N1CCOCC1` [Compound 18, (2-([1,1’-Biphenyl]-4-yl)benzo[d]oxazol-6-yl)(morpholino)methanone], for which, on AChE, the IC50 was 21.3 nM; the affinity, expressed as Ki, was 20.9 ± 4.22 nM; the “Selectivity index (AChE/BChE)” value came out at 0.37. On BChE, this compound showed an IC50 of 65.1 nM and a Ki of 56.7 ± 1.57 nM.

Turning to `O=C(c1ccc2nc(-c3ccco3)oc2c1)N1CCCC1` [Compound 40], on AChE, the IC50 was 52.1 nM, the Ki is 34.9 ± 7.28 nM and the “Selectivity index (AChE/BChE)” value is on record as 0.36. At BChE, this compound returned an IC50 of 101 nM and a Ki of 95.6 ± 20.2 nM.

As to `CCN(CC)C(=O)c1ccc2nc(-c3cccc4ccccc34)oc2c1` [Compound 20, N,Ndiethyl-2-(naphthalen-1-yl)benzo[d]oxazole-6-carboxamide], on AChE, the midpoint of inhibition, the IC50, lay at 53.6 nM; the Ki amounted to 48.5 ± 9.97 nM; the “Selectivity index (AChE/BChE)” value is on record as 0.36. Besides, on BChE, the IC50 was determined as 174 nM and affinity was put at a Ki of 136 ± 30.7 nM.

For the compound `CCCN(CCC)C(=O)c1ccc2nc(-c3cccc4ccccc34)oc2c1` [Compound 21, 2-(Naphthalen-1-yl)-N,Ndipropylbenzo[d]oxazole-6-carboxamide], on AChE, the IC50 is 67 nM, the Ki came out at 71.6 ± 12 nM and the “Selectivity index (AChE/BChE)” value is 0.50. For the same compound, at BChE, the concentration for half-maximal inhibition (IC50) turned out to be 188 nM and the Ki was 145 ± 11.2 nM.

Regarding `O=C(c1ccc2nc(-c3ccc(-c4ccccc4)cc3)oc2c1)N1CCCCC1` [Compound 17, (2-([1,1’-Biphenyl]-4-yl)benzo[d]oxazol-6-yl)(piperidin-1-yl)methanone], on AChE, the half-maximal inhibitory concentration (IC50) is 20.6 nM, the Ki amounted to 18.4 ± 3.33 nM and the “Selectivity index (AChE/BChE)” value is 0.37. In addition, on BChE, the midpoint of inhibition, the IC50, lay at 58.9 nM and the affinity, expressed as Ki, was 49.2 ± 11.1 nM.

As for `CCN(CC)C(=O)c1ccc2nc(-c3ccc(-c4ccccc4)cc3)oc2c1` [Compound 14], on AChE, 30.8 nM corresponded to half-maximal inhibition (IC50), the Ki is 19.8 ± 3.69 nM and the “Selectivity index (AChE/BChE)” value was found to be 0.26. Further, on BChE, the IC50 is 84.6 nM and the inhibitory constant (Ki) is 75.3 ± 13.8 nM.

Regarding `CN(C)C(=O)c1ccc2nc(-c3ccc(-c4ccccc4)cc3)oc2c1` [Compound 13, 2-([1,1’-Biphenyl]-4-yl)-N,N-dimethylbenzo[d]oxazole-6-carboxamide], at AChE, the half-inhibitory concentration (IC50) amounted to 33.2 nM, affinity was put at a Ki of 29.8 ± 1.02 nM and the “Selectivity index (AChE/BChE)” value is on record as 0.46. In addition, at BChE, the concentration for half-maximal inhibition (IC50) is 63.5 nM and affinity was put at a Ki of 65.4 ± 14.1 nM.

For `O=C(c1ccc2nc(-c3cccc4ccccc34)oc2c1)N1CCCCC1` [Compound 23], on AChE, the IC50 worked out at 24.6 nM; the affinity, expressed as Ki, was 20.2 ± 1.47 nM; the “Selectivity index (AChE/BChE)” value was 0.29. Moreover, at BChE, the IC50 stood at 98.3 nM and the Ki is 69.4 ± 11.3 nM.

For the compound `CCCN(CCC)C(=O)c1ccc2nc(-c3ccccc3)oc2c1` [Compound 9, 2-Phenyl-N,Ndipropylbenzo[d]oxazole-6-carboxamide], on AChE, the IC50 came out at 48.8 nM; the affinity, expressed as Ki, was 59.4 ± 3.69 nM; the “Selectivity index (AChE/BChE)” value stood at 0.53. For the same compound, at BChE, the IC50 was 116 nM and affinity was put at a Ki of 111 ± 4.67 nM.

Turning to `O=C(c1ccc2nc(-c3ccc[nH]3)oc2c1)N1CCOCC1` [Compound 36, (2-(1 H-pyrrol-2-yl)benzo[d]oxazol-6-yl)(morpholino)methanone], on AChE, the concentration for half-maximal inhibition (IC50) came to 12.6 nM; the “type of inhibition, AChE” value is on record as “mixed-type”; the Ki was 7.74 ± 0.75 nM; the “Selectivity index (AChE/BChE)” value is reported as 0.38. Moreover, at BChE, half-maximal inhibition (IC50) required 25.4 nM; the “type of inhibition, BChE” value is given as “mixed-type”; the affinity, expressed as Ki, was 20.3 ± 1.56 nM.

For `CN(C)C(=O)c1ccc2nc(-c3ccco3)oc2c1` [Compound 37, 2-(Furan-2-yl)-N,N-dimethylbenzo[d]oxazole-6-carboxamide], on AChE, the IC50 came out at 46.4 nM, affinity was put at a Ki of 45.7 ± 4.3 nM and the “Selectivity index (AChE/BChE)” value was 0.37. On BChE, this compound had an IC50 of 147 nM and a Ki of 123 ± 15.3 nM.

Take `O=C(c1ccc2nc(-c3ccncc3)oc2c1)N1CCCC1` [Compound 28]: at AChE, the IC50 came out at 40.5 nM, the Ki is 47.9 ± 4.7 nM and the “Selectivity index (AChE/BChE)” value was determined as 0.91. Further, on BChE, the IC50 came out at 57.2 nM and the Ki was 52.9 ± 11.7 nM.

As for `O=C(c1ccc2nc(-c3ccccc3)oc2c1)N1CCCCC1` [Compound 11], on AChE, half-maximal inhibition (IC50) was put at 21.4 nM; the affinity, expressed as Ki, was 18.6 ± 2.58 nM; the “Selectivity index (AChE/BChE)” value was found to be 0.25. On BChE, this compound returned an IC50 of 61.2 nM and an inhibitory constant (Ki) of 74.4 ± 16.9 nM.

With `CCN(CC)C(=O)c1ccc2nc(-c3cccs3)oc2c1` [Compound 44, N,N-2-(thiophen-2-yl)benzo[d]oxazole-6-carboxamide], on AChE, the concentration for half-maximal inhibition (IC50) was found to be 27.6 nM, affinity was put at a Ki of 15.7 ± 0.85 nM and the “Selectivity index (AChE/BChE)” value is 0.27. In addition, at BChE, the IC50 is 75.4 nM and the Ki amounted to 61 ± 11.1 nM.

Turning to `CCN(CC)C(=O)c1ccc2nc(-c3ccccc3)oc2c1` [Compound 8, N,N-diethyl-2-phenylbenzo[d]oxazole-6-carboxamide], at AChE, half-maximal inhibition (IC50) was put at 34 nM; the affinity, expressed as Ki, was 30.6 ± 3.34 nM; the “Selectivity index (AChE/BChE)” value was found to be 0.40. At BChE, the IC50 came out at 74 nM and affinity was put at a Ki of 77 ± 5.25 nM.

The record behind these values is PMC11785640, “Structure-based inhibition of acetylcholinesterase and butyrylcholinesterase with 2-Aryl-6-carboxamide benzoxazole derivatives: synthesis, enzymatic assay, and in silico studies” (Molecular Diversity, 2024).
